According to article PMC10952582, “Pregnenolone sulfate analogues differentially modulate GABAA receptor closed/desensitised states” (British Journal of Pharmacology, 2023):

Legend:
α1β3γ2L GABAAR [1] = biological target: T1, α1β3γ2L GABAAR (Mus musculus, UniProt P22723+P62812+P63080); assay: Whole-cell voltage-clamp electrophysiology, wild-type α1β3γ2L GABAARs expressed in HEK cells; format: cell-based, murine
T1 construct: expressed in transfected cells; host or cells: HEK 293 cells (ATCC CRL-1573)
T1 sequence (P62812 28-455): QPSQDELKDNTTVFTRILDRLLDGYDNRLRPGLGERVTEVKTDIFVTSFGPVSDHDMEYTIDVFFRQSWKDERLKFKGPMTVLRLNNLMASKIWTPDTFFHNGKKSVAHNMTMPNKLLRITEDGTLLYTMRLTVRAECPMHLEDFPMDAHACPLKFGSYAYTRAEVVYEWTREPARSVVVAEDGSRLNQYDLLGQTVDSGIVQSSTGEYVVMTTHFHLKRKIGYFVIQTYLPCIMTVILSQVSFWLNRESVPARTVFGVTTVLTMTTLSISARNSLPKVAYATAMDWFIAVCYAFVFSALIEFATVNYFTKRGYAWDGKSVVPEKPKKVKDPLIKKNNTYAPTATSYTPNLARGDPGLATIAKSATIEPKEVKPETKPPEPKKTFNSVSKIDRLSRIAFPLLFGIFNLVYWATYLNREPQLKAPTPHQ
T1 sequence (P63080 26-473 partner): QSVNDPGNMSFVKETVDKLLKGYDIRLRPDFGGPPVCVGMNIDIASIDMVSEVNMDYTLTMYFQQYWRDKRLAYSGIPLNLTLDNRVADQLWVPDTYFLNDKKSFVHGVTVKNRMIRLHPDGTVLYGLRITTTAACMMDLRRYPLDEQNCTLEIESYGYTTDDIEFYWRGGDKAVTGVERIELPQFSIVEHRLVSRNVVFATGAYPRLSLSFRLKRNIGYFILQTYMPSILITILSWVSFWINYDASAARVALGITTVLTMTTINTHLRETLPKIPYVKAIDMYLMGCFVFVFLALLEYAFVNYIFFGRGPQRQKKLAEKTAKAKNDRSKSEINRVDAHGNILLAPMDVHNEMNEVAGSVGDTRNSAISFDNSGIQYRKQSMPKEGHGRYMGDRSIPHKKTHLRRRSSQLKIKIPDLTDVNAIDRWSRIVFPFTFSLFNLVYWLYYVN
T1 sequence (P22723 39-474 partner): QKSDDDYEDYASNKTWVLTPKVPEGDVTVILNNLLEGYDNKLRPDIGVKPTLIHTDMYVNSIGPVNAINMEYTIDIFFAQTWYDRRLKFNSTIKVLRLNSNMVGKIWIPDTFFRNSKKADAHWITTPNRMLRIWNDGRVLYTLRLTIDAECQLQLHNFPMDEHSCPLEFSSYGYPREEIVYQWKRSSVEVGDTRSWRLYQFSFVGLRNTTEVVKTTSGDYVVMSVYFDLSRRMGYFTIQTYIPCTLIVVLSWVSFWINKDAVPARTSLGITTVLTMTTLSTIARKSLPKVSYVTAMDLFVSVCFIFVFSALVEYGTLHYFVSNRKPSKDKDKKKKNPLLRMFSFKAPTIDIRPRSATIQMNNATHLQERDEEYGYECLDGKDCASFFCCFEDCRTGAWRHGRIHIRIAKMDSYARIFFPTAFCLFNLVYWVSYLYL
Method: (§1) HEK 293 cells (ATCC Cat# CRL‐1573, RRID:CVCL_0045) were maintained and transfected under standard conditions. In brief, cells were grown in monolayers in Dulbecco's modified Eagle's medium supplemented with 10% v/v fetal calf serum, 100 U·ml^−1 of penicillin‐G and 100 μg·ml^−1 of streptomycin and incubated at 37°C in humidified 95% air/5% CO2.
(§2) Before transfection, HEK cells were plated onto 22 mm of glass coverslips (VWR) coated in poly‐L‐lysine (Sigma). Cells were transfected with α1 (wild‐type [wt] or mutant [mut]), β3 (wt), γ2L (wt or mut) and enhanced green fluorescent protein (eGFP) in an equimolar ratio (1:1:1:1), using a calcium‐phosphate precipitation protocol. The transfection solution was prepared from 4 μg of cDNA per coverslip, 20 μl of 340 mM of CaCl2 and 24 μl of 2× HEPES‐buffered saline (HBS) (50 mM of HEPES, 280 mM of NaCl and 2.8 mM of Na2HPO4). Cells were selected for electrophysiology after 16–30 h based on their morphology and moderate GFP fluorescence.
(§3) Coverslips with transfected HEK cells were transferred into a recording chamber on a Nikon Eclipse FN1 microscope with a 470‐nm LED for GFP fluorescence. Cells were continuously perfused with Krebs solution containing (mM) 140 NaCl, 4.7 KCl, 1.2 MgCl2, 2.52 CaCl2, 11 glucose and 5 HEPES (pH 7.4). Patch pipettes (thin‐walled filamented borosilicate glass capillaries; TW150F‐4; WPI, USA; 3–4 MΩ) were filled with an intracellular solution containing (mM) 140 CsCl, 2 NaCl, 2 MgCl2, 5 EGTA, 10 HEPES, 0.5 CaCl2, 2 Na‐ATP and 0.5 Na‐GTP (pH 7.2). Drugs were applied to cells using a Y‐tube delivery system (Mortensen & Smart, [2007]), with the PS analogues pre‐applied 10–12 s before co‐application with GABA.
(§4) HEK cells were voltage clamped at −30 mV using an Axopatch 200B amplifier (Molecular Devices, USA), and whole‐cell currents were filtered at 5 kHz (−36 dB), digitised at 50 kHz via a Digidata 1322A (Molecular Devices) and recorded to a Dell Optiplex 990 using Clampex 10.2 (Molecular Devices). Series resistance was compensated at 60%–70%, and only data with <20% deviation in series resistance would be included in subsequent analyses.
(§5) Weighted time constants for the decay phase (τw) were calculated by fitting a biexponential curve to the current decay waveform and applying the following equation: τw=A1.τ1+A2.τ2/A1+A2, where τ1 and τ2 represent time constants for the two exponential components of the decay phase and A1 and A2 are their relative area contributions.
(§6) Current responses from voltage‐clamp experiments were measured, and decays fitted using ClampFit 10.2 (Molecular Devices) to determine the respective time constants. In Origin, data were plotted as concentration–response curves, and curves fitted using the following inhibition equation: I/Imax=1−B^n/IC50^n+B^n, where I is the current response, B is the concentration of the PS analogue, n is the slope coefficient and IC50 is the analogue concentration producing 50% inhibition of GABA current (inhibitory potency). Potency values are presented as pIC50 with SEM values. The mean was transformed into a molar concentration by pIC50 = −log IC50. Other data are represented as the mean ± SEM.

α1β3γ2L GABAAR [2] = biological target: T2, α1β3γ2L GABAAR (Mus musculus, UniProt P62812); assay: as above; format: cell-based, murine; conditions: for mean (weighted) decay time (τw) of GABA current: 1 nM PS analogue, 30 μM GABA
T2 construct: expressed in transfected cells; host or cells: HEK 293 cells (ATCC CRL-1573)
T2 sequence (P62812 28-455): as the sequence (P62812 28-455) above
T2 sequence (P63080 26-473 partner): as the sequence (P63080 26-473 partner) above
T2 sequence (P22723 39-474 partner): as the sequence (P22723 39-474 partner) above
Method: as §1, §2, §3, §4, §5, §6

α1F295Aβ3γ2L GABAAR = biological target: T3, α1F295Aβ3γ2L GABAAR (Mus musculus, UniProt P22723+P62812+P63080, F322A); assay: Whole-cell voltage-clamp electrophysiology, mutant α1F295Aβ3γ2L in HEK cells; format: cell-based, murine
T3 construct: expressed in transfected cells; host or cells: HEK 293 cells (ATCC CRL-1573)
T3 sequence (P62812 28-455 F322A): as the sequence (P62812 28-455) above, with F295A counted along it
T3 sequence (P63080 26-473 partner): as the sequence (P63080 26-473 partner) above
T3 sequence (P22723 39-474 partner): as the sequence (P22723 39-474 partner) above
Method: as §1, §2, §3, §4, §5, §6

α1F399Aβ3γ2L GABAAR = biological target: T4, α1F399Aβ3γ2L GABAAR (Mus musculus, UniProt P22723+P62812+P63080, F426A); assay: Whole-cell voltage-clamp electrophysiology, mutant α1F399Aβ3γ2L in HEK cells; format: cell-based, murine
T4 construct: expressed in transfected cells; host or cells: HEK 293 cells (ATCC CRL-1573)
T4 sequence (P62812 28-455 F426A): as the sequence (P62812 28-455) above, with F399A counted along it
T4 sequence (P63080 26-473 partner): as the sequence (P63080 26-473 partner) above
T4 sequence (P22723 39-474 partner): as the sequence (P22723 39-474 partner) above
Method: as §1, §2, §3, §4, §5
Current responses from voltage‐clamp experiments were measured, and decays fitted using ClampFit 10.2 (Molecular Devices) to determine the respective time constants. […]

[3] = biological target: T5, α1F295A, F399Aβ3γ2L GABAAR (Mus musculus, UniProt P22723+P62812+P63080, F322A/F426A); assay: Whole-cell voltage-clamp electrophysiology, mutant α1F295A,F399Aβ3γ2L in HEK cells; format: cell-based, murine
T5 construct: expressed in transfected cells; host or cells: HEK 293 cells (ATCC CRL-1573)
T5 sequence (P62812 28-455 F322A/F426A): as the sequence (P62812 28-455) above, with F295A, F399A counted along it
T5 sequence (P63080 26-473 partner): as the sequence (P63080 26-473 partner) above
T5 sequence (P22723 39-474 partner): as the sequence (P22723 39-474 partner) above
Method: as §1, §2, §3, §4, §5, §6

α1V296Lβ3γ2L GABAAR [4] = biological target: T6, α1V296Lβ3γ2L GABAAR (Mus musculus, UniProt P22723+P62812+P63080, V323L); assay: Whole-cell voltage-clamp electrophysiology, minimally desensitising mutant α1V296Lβ3γ2L in HEK cells; format: cell-based, murine
T6 construct: expressed in transfected cells; host or cells: HEK 293 cells (ATCC CRL-1573)
T6 sequence (P62812 28-455 V323L): as the sequence (P62812 28-455) above, with V296L counted along it
T6 sequence (P63080 26-473 partner): as the sequence (P63080 26-473 partner) above
T6 sequence (P22723 39-474 partner): as the sequence (P22723 39-474 partner) above
Method: as §1, §2, §3, §4, §5, §6

α1β3γ2LV262F GABAAR = biological target: T7, α1β3γ2LV262F GABAAR (Mus musculus, UniProt P62812); assay: Whole-cell voltage-clamp electrophysiology, highly desensitising mutant α1β3γ2LV262F in HEK cells; format: cell-based, murine
T7 construct: expressed in transfected cells; host or cells: HEK 293 cells (ATCC CRL-1573)
T7 sequence (P62812 28-455): as the sequence (P62812 28-455) above
T7 sequence (P63080 26-473 partner): as the sequence (P63080 26-473 partner) above
T7 sequence (P22723 39-474 V300F partner): as the sequence (P22723 39-474 partner) above, with V262F counted along it
Method: as §1, §2, §3, §4, §5, §6

α1β3γ2L GABAAR [5] = biological target: T2, α1β3γ2L GABAAR; assay: Kinetic modelling and waveform fitting of GABA currents (ChanneLab); set-up: species or system murine; conditions: waveform fit, 30 μM GABA
Method: We used ChanneLab (Version 2.2; Synaptosoft) to build relatively simple kinetic models of the GABAAR. To explore the functional behaviour of PS analogues (compounds) 5 and 6, we incorporated concentration‐dependent PS analogue‐bound states into the model. Simulated currents were generated in ChanneLab and explored at different GABA and PS analogue concentrations. These were evaluated against GABA currents generated under experimental conditions, using the waveform fitting function in ChanneLab. Rate constants connecting receptor states were determined initially empirically with reference to previously published values and varied individually to optimise the fit to the data (seed values) prior to using waveform fitting and Runge–Kutta numerical integration (RK5) to eventually simulate the experimental GABA current profiles with 50 iterations. GABA‐activated membrane currents were fitted over their full timecourse of 20 s.
To investigate, simplified GABAAR models were constructed, incorporating some or all the following receptor states: an unbound closed state (R); GABA‐bound closed ‘composite’ state (RA) that incorporates one or more preactivation states that are not explicitly indicated or a closed (RA) and separate preactivated (RfA) state; a GABA‐bound activated state (RA*); and a desensitised state (RD) accessed via the receptor's activated state. These simple models enable the generation of simulated GABA‐dependent currents, with values for the rate constants determined initially empirically in broad accord with published parameters and manually adjusted to provide seed values before performing waveform fitting with unconstrained rate constants (Figure 8a).
RA* is the activated receptor open channel before moving to a desensitised state RD.

α1V296Lβ3γ2L GABAAR [6] = biological target: T8, α1V296Lβ3γ2L GABAAR (Mus musculus, UniProt P62812, V323L); assay: Whole-cell voltage-clamp electrophysiology, minimally desensitising mutant α1V296Lβ3γ2L in HEK cells; format: cell-based, murine
T8 construct: expressed in transfected cells; host or cells: HEK 293 cells (ATCC CRL-1573)
T8 sequence (P62812 28-455 V323L): as the sequence (P62812 28-455) above, with V296L counted along it
T8 sequence (P63080 26-473 partner): as the sequence (P63080 26-473 partner) above
T8 sequence (P22723 39-474 partner): as the sequence (P22723 39-474 partner) above
Method: as §1, §2, §3, §4, §5, §6

[7] = Decay inhibition (pIC50), potency for reducing GABA current weighted decay time constant, 30 μM GABA
[8] = Peak inhibition (pIC50), peak current evoked by 30 μM GABA, analogue pre-applied 10–12 s and co-applied
[9] = Steady-state inhibition (pIC50), GABA current after 20 s of 30 μM GABA (near steady state)
[10] = Decay inhibition (pIC50), GABA current weighted decay time constant
[11] = Steady-state inhibition (pIC50), 30 μM GABA, 20 s
[12] = Steady-state inhibition (pIC50), steady-state GABA current
[13] = steady-state current after 20 s of 1 mM GABA

`CC12CCC(OS(=O)(=O)O)CC1=CCC1C2CCC2(C)C(C(=O)Cn3cccc3)CCC12` (stereo not drawn) [compound 8] gave an IC50 (α1β3γ2L GABAAR [1]; [7]) of 3.23 µM, an IC50 (α1β3γ2L GABAAR [1]; [8]) of 33.3 µM and an IC50 (α1β3γ2L GABAAR [1]; [9]) of 0.236 µM. For the same compound, the “mean (weighted) decay time (τw) of GABA current” value (α1β3γ2L GABAAR [2]) was 3.6 ± 0.3 s.
`C[C@]12CC[C@H](OS(=O)(=O)O)CC1=CCC1C2CC[C@@]2(C)C1CC[C@@H]2C(=O)CN1CCOCC1` (stereo partly drawn) [compound 5] gave an IC50 (α1β3γ2L GABAAR [1]; [7]) of 117 µM, an IC50 (α1β3γ2L GABAAR [1]; [8]) of roughly 2000 µM and an IC50 (α1β3γ2L GABAAR [1]; Steady-state inhibition (IC50), GABA current after 20 s of 30 μM GABA (near steady state)) of roughly 1 µM. The IC50 (α1β3γ2L GABAAR [1]; [9]) was 0.843 µM, the “mean (weighted) decay time (τw) of GABA current” value (α1β3γ2L GABAAR [2]) was 3.7 ± 0.1 s and the IC50 (α1F295Aβ3γ2L GABAAR; [10]) was 8.47 µM. The IC50 (α1F295Aβ3γ2L GABAAR; [11]) was 2.93 µM, the IC50 (α1F399Aβ3γ2L GABAAR; [10]) was 7.89 µM and the IC50 (α1F399Aβ3γ2L GABAAR; [11]) was 8.36 µM. For the same compound, the IC50 [3, 10] was 7.21 µM, the IC50 [3, 11] was 5.22 µM and the IC50 (α1V296Lβ3γ2L GABAAR [4]; [10]) was 3.24 µM. It also gave an IC50 (α1V296Lβ3γ2L GABAAR [4]; [12]) of 20.7 µM, an IC50 (α1β3γ2LV262F GABAAR; [10]) of 70.8 µM and an IC50 (α1β3γ2LV262F GABAAR; [12]) of 14.2 µM. The “rate constant k2, Model (b)” value (α1β3γ2L GABAAR [5]; Model (b): binding to RA forming RAP, then RAPd) was 62900 M⁻¹ s⁻¹ and the “rate constant k3, Model (b)” value (α1β3γ2L GABAAR [5]; Model (b)) was 921000 s⁻¹.
`NCCCC(=O)O` [GABA, γ‐Aminobutyric acid] was tested, and the “mean weighted decay time constant (τw) of GABA current” value (“mean weighted decay time constant” for short) (α1β3γ2L GABAAR [2]; wild-type α1β3γ2L, 1 mM GABA, 20 s) was 3.7 ± 0.17 s, the “extent of macroscopic desensitisation” value (α1β3γ2L GABAAR [2]; wild-type α1β3γ2L, steady-state current after 20 s of 1 mM GABA) was 68 ± 1.6% and the “mean weighted decay time constant” value (α1V296Lβ3γ2L GABAAR [6]; 1 mM GABA, 20 s) was 7.4 ± 1.3 s. The “extent of macroscopic desensitisation” value (α1V296Lβ3γ2L GABAAR [6]; [13]) was 39 ± 6.0%, the “mean weighted decay time constant” value (α1β3γ2LV262F GABAAR; 1 mM GABA, 20 s) was 2.3 ± 0.28 s and the “extent of macroscopic desensitisation” value (α1β3γ2LV262F GABAAR; [13]) was 89 ± 1.3%.
